From PubChem BioAssay AID1963962 (Molecular Pharmacology Branch, DTP, NCI, 2024)

Test system: 967376-340-R-J2-PDC multicell spheroid viability
Assay: Anticancer human tumor 967376-340-R-J2-PDC patient-derived colon adenocarcinoma cell line growth inhibition [PI3K]
Settings: for IC50: curve of first compound; for viability, T/C: stronger effect = lower value
Description: Combinatorial screen of targeted agents with the PI3K inhibitors inavolisib, alpelisib, duvelisib, and copanlisib in multi-cell type tumor spheroids
A high-throughput screen of multi-cell type tumor spheroids was designed to identify active combinations of targeted small molecules and PI3K pathway inhibitors. Complex spheroids include a stromal component modeled by human endothelial cells (HUVEC) and fibroblasts modeled by human mesenchymal stem cells (MSCs). The concentration ranges selected for each drug and investigational agent were based upon clinically achievable concentrations if the clinical Cmax of the agent was known.
Compounds. The drugs and investigational agents: inavolisib (NSC800729), alpelisib (NSC765974), duvelisib (NSC772469), copanlisib (NSC816437), ipatasertib (NSC767898), afuresertib (NSC778305), talazoparib (NSC767125), sapanisertib (NSC764658), selumetinib (NSC741078), tovorafenib (DAY101, NSC766906), vemurafenib (NSC761431), ravoxertinib (NSC781343), sotorasib (NSC818433), MRTX1133 (NSC 836407), abemaciclib (NSC 768073), palbociclib (NSC758247), venetoclax (NSC 766270), SY5609 (NSC837396), enzalutamide (NSC755605), and darolutamide (NSC825331), were obtained from the National Cancer Institute (NCI) Developmental Therapeutics Program Chemical Repository. The FDA-approved anticancer drug set is available from the NCI Developmental Therapeutics Program. […] The stock solutions were prepared in dimethyl sulfoxide (DMSO, Sigma-Aldrich, St. Louis, MO, cat. D2650) at 800-fold the tested concentration and stored at -70 degrees C prior to their use. All drugs and investigational agents were tested over a range starting from a high concentration at or near the clinical Cmax and decreasing in half-log increments. If the clinical Cmax for an agent had not been determined, the highest concentration tested was 10 microM.
Cell Culture. All cells were maintained in an incubator at 37 degrees C and 5% CO2 with 95% humidity. The PDC lines were cultured according to standard operating procedures established by the NCI PDMR (https://pdmr.cancer.gov/sops/default.htm). All PDCs were thawed and cultured in Matrigel-coated flasks prepared with a working solution of 1X Ham's F-12 nutrient mix, without supplementation (Invitrogen, Waltham, MA, cat. 11765054), 100 U/mL penicillin-streptomycin (Invitrogen, cat. 15140122), and 2.5% Matrigel (Corning Inc., Corning, NY, cat. 354248) for the first three passages. The 354836-022-R-J1-PDC, 475296-252-R-J1-PDC, and 997726-040-R-J2-PDC lines were cultured in 6A media, which includes advanced DMEM/F-12 (Thermo Fisher Scientific, cat. 12634028), 10 mM HEPES (Thermo Fisher Scientific, cat. 15630080), 1X GlutaMAX supplement (Thermo Fisher Scientific, cat. 35050061), 0.1 mg/mL primocin (InvivoGen, San Diego, CA, cat. ant-pm-2), 10% defined fetal bovine serum, heat inactivated (HyClone Laboratories Inc., Logan, UT, cat. SH30070.03HI), 50% L-WRN conditioned media (ATCC, cat. CRL-3276), 1.25 mM N-Acetyl-L-cysteine (Sigma-Aldrich, cat. A9165), 10 mM nicotinamide (Sigma-Aldrich, cat. N0636), 1X B-27 supplement (Thermo Fisher Scientific, cat. 17504044), 1X N-2 supplement (Thermo Fisher Scientific, cat. 17502048), and 10 microM Y-27632 dihydrochloride (Tocris Bioscience, Bristol, United Kingdom, cat. 1254). The 624824-186-R-J2-PDC line was cultured in 6C/Colon 1B media, which includes all 6A media components plus 50 ng/mL human EGF recombinant protein (Thermo Fisher Scientific, cat. PHG0311). […]
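Note: spheroids exposed to agents for 7 days before read-out.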
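Throughout, for viability, T/C: luminescence used as surrogate of cell viability.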

For Cn1nccc1Nc1nccc(-c2ccn(C(CO)c3ccc(Cl)c(F)c3)c(=O)c2)n1 (configuration not stated) + Cc1nc(NC(=O)N2CCCC2C(N)=O)sc1-c1ccnc(C(C)(C)C(F)(F)F)c1, the IC50 (second compound 0.0316 µM) was > 10 µM, the IC50 (second compound 0.1 µM) was > 10 µM and the IC50 (second compound 0.316 µM) was > 10 µM. The IC50 (second compound 1 µM) was > 10 µM, the IC50 (second compound 3.16 µM) was > 10 µM and the IC50 (second compound 10 µM) was < 0.0316 µM. For the same compound, the viability, T/C (second compound 0.0316 µM, first compound 0.0316 µM) was 66.3%, the viability, T/C (second compound 0.0316 µM, first compound 0.1 µM) was 104% and the viability, T/C (second compound 0.0316 µM, first compound 0.316 µM) was 97.2%. It also gave a viability, T/C (second compound 0.0316 µM, first compound 1 µM) of 83.5%, a viability, T/C (second compound 0.0316 µM, first compound 3.16 µM) of 87.3% and a viability, T/C (second compound 0.0316 µM, first compound 10 µM) of 85.7%. The viability, T/C (second compound 0.1 µM, first compound 0.0316 µM) was 70.2%, the viability, T/C (second compound 0.1 µM, first compound 0.1 µM) was 67% and the viability, T/C (second compound 0.1 µM, first compound 0.316 µM) was 85.1%. For the same compound, the viability, T/C (second compound 0.1 µM, first compound 1 µM) was 76.7%, the viability, T/C (second compound 0.1 µM, first compound 3.16 µM) was 72.4% and the viability, T/C (second compound 0.1 µM, first compound 10 µM) was 75.5%. The viability, T/C (second compound 0.316 µM, first compound 0.0316 µM) was 65.4%, the viability, T/C (second compound 0.316 µM, first compound 0.1 µM) was 70.9% and the viability, T/C (second compound 0.316 µM, first compound 0.316 µM) was 63.8%. The viability, T/C (second compound 0.316 µM, first compound 1 µM) was 82%, the viability, T/C (second compound 0.316 µM, first compound 3.16 µM) was 84.2% and the viability, T/C (second compound 0.316 µM, first compound 10 µM) was 60.7%. The viability, T/C (second compound 1 µM, first compound 0.0316 µM) was 66.6%, the viability, T/C (second compound 1 µM, first compound 0.1 µM) was 61% and the viability, T/C (second compound 1 µM, first compound 0.316 µM) was 60.1%. It also gave a viability, T/C (second compound 1 µM, first compound 1 µM) of 67.8%, a viability, T/C (second compound 1 µM, first compound 3.16 µM) of 64.7% and a viability, T/C (second compound 1 µM, first compound 10 µM) of 53.5%. It also gave a viability, T/C (second compound 3.16 µM, first compound 0.0316 µM) of 46.1%, a viability, T/C (second compound 3.16 µM, first compound 0.1 µM) of 61.4% and a viability, T/C (second compound 3.16 µM, first compound 0.316 µM) of 56.3%. For the same compound, the viability, T/C (second compound 3.16 µM, first compound 1 µM) was 58.5%, the viability, T/C (second compound 3.16 µM, first compound 3.16 µM) was 60.8% and the viability, T/C (second compound 3.16 µM, first compound 10 µM) was 77.1%. For the same compound, the viability, T/C (second compound 10 µM, first compound 0.0316 µM) was 39.9%, the viability, T/C (second compound 10 µM, first compound 0.1 µM) was 47.6% and the viability, T/C (second compound 10 µM, first compound 0.316 µM) was 42.2%. For the same compound, the viability, T/C (second compound 10 µM, first compound 1 µM) was 36.1%, the viability, T/C (second compound 10 µM, first compound 3.16 µM) was 53.7% and the viability, T/C (second compound 10 µM, first compound 10 µM) was 32.3%.
